# From US7297353B2, “Use of anemonin for treating aseptic inflammations” (priority 2000, dated 2007)
# “And” between values parts separate entries of the source, which are not always exact repeats. Equal entries are not always repeated. “Also recorded” adds a separate entry of the source. Where two headings read alike, the source gives them in different places.
# What was measured:
# [1] = system: lymphocytes from the whole spleen of ICR mice; test: Effect on survival rate of lymphocytes (MTT); type: cell-based; conditions: for MTT Average of OD values: 48-hour culture
# Description: 5.1.1. Mice were sacrificed by removing spondyle, spleen was cut off and then ground to obtain single cell suspension. After erythrocytes were got rid of the remained cells were diluted to […] with RPMI-1640 culture solution containing 10% fetal bovine serum. In addition, all these performances must be sterile.
# 5.1.2. 200 μl solution in total volume (including 100 μl the cell suspension, 50 μl sample and 50 μl culture solution containing 10% fetal bovine serum) was dispensed on 96-well plate. 100 μl the cell suspension and 100 μl culture solution (200 μl in total volume) were added as negative control.
# 5.1.3. The cell was cultured at 37° C. and under 5% CO2 in incubator for 48 hours, and added MTT to the plate at […] 6 to 7 hours before the end of culture.
# 5.1.4. 100 μl of supernatant was sucked out when the culture was ended, and then lytic solution was added at 100 μl/well. The plates were kept in incubator for 6 to 7 hours. The survival rate was calculated according to the OD value (at 570 nm) measured by microplate reader.
# Effect of different concentrations of Anemonin on survival rate of lymphocytes were determined, said lymphocytes were from the whole spleen of ICR mice after 48-hour culture.
# [2] = system: B-lymphocytes from the whole spleen of mice; test: LPS-induced responsive proliferation of B-lymphocytes ([3H] thymidine); type: cell-based; conditions: for Proliferation of B-lymphoctes LPS stimulation Average of CPM values / Proliferation of B-lymphocytes LPS stimulation Average of CPM values: LPS at 10 μg/ml, 48 hours; for inhibition of LPS-induced responsive proliferation of B-lymphocytes: final concentration range from 1 μg/ml to 100 μg/ml
# Description: 5.2.1. Mice were sacrificed by removing spondyle, spleen was cut off in a sterile condition and then ground to obtain single cell suspension. After erythrocytes were got rid of the remained cells were diluted to […] with RPMI-1640 culture solution containing 10% fetal bovine serum.
# 5.2.2. 200 μl solution in total volume (including 100 μl the cell suspension, 50 μl sample and 50 μl ConA or LPS) was dispensed on 96-well plate.
# 50 μl culture solution containing 10% fetal bovine serum, instead of 50 μl sample, was added as negative control, in which the total volume was also 200 μl.
# 5.2.3. The cell was cultured at 37° C. and under 5% CO2 in incubator for 48 hours, and [^3H] thymidine (1.9×10^4 Bq) was added to the plate at 25 μl/well 12 hours before the end of culture.
# 5.2.4. The culture was continued. The plates were then stored at −20° C. in refrigeratory after the culture. The thawed cells were collected to fiberglass membrane (Nitrocellose membrane) with cell collector when detecting. After the addition of Scintillation solution, the quantity of [^3H] thymidine incorporated into DNA of cells was detected by Beta counter (MicroBeta Trilux, PerkinElmer LifeSciences). The proliferation of lymphocytes was indicated by cpm value.
# Effect of the medicament on LPS-induced responsive proliferation of B-lymphocytes was examined, said B-lymphocytes were from the whole spleen of mice. LPS at 10 μg/ml final concentration was used as the stimulator to induce responsive proliferation of B-lymphocytes from the whole spleen of ICR homogenous mice (cultured in vitro for 48 hours).
# spleen cells = test: Cytotoxicity effect of anemonin (MTT assay); type: cell-based, ICR mice; conditions: for OD value: 48 h
# Description: The cell viability was determined by using 3-(4,5-dimethylthiazol-2-yl)-2,5-Diphenyl-tetrazolium bromide (MTT) assay. In brief, fresh spleen cells were obtained from ICR mice (male, 7-9 weeks old), 5×10^5 of spleen cells were cultured in 96-well flat plates. The medium was contained various concentrations of anemonin. After incubation for up to 48 h, MTT solution (5 mg/m in saline) was added to the 96 plates and cells were allowed to incubate for 6 h at 37° C. After the medium had been removed 100 μl, the cell and dye crystals were solubilized by adding 100 μl 10% sodium dodecyl sulfate (SDS), and then absorption was measured at 570 nm with a model 550-microplate reader (Bio-Rad).
# IL-2 = test: Cytokine production from splenocytes, ConA stimulation, IL-2 (ELISA); type: cell-based, murine; conditions: 24 h
# Description: For splenocyte cytokine production assay, 5×10^6 cells per well were inoculated into a 24-well tissue culture plate with ConA (5 mg/L) or Sac (1:10000) stimulation. Different concentrations of Anemonin were added in a final volume of 2 ml. Cells were incubated at 37° C., 5% CO2 for 24 h and supernatants were harvested, IFN-γ, IL-10, IL12 (p40) and IL-2 in supernatants were measured by the sandwich enzyme-linked immunosorbent assay (ELISA) as specified by the manufacturer (BD Bioscience pharmingen, US). Concentrations of the cytokine productions were calculated based on standard curves obtained from serial dilutions of murine cytokines (r IFN-γ, rIL-10, rIL12, rIL-2). As shown in Tables C-3 and C-4, high-dose Anemonin (1-100 μg/ml) inhibited all kinds of cytokine release induced by ConA or Sac.
# [3] = In vitro percutaneous penetration velocity of anemonin; type: in vitro ADME; parameters: steady penetration velocity into derma: unit not given here; conditions: for Js: steady penetration velocity / Q24: cumulative amount of percutaneous penetration medicament per square centimeter for 24 hours / Tlag: time lag: n = 3
compound,measurement,setting,value
"O=C1C=CC2(CCC23C=CC(=O)O3)O1 (centres unmarked) [Anemonin, anemonin]",MTT Average of OD values,"[1]; 0.001 μg/ml, Table B-2",0.087
same,Decrease of survival rate of lymphocytes Yes/No,"[1]; 0.001 μg/ml, Table B-2",Yes
same,MTT Average of OD values,"[1]; 0.01 μg/ml, Table B-2",0.068
same,Decrease of survival rate of lymphocytes Yes/No,"[1]; 0.01 μg/ml, Table B-2",Yes
same,MTT Average of OD values,"[1]; 0.1 μg/ml, Table B-2",0.061
same,Decrease of survival rate of lymphocytes Yes/No,"[1]; 0.1 μg/ml, Table B-2",Yes
same,MTT Average of OD values,"[1]; 1 μg/ml, Table B-1",0.052
same,MTT Average of OD values,"[1]; 1 μg/ml, Table B-2",0.002
same,Decrease of survival rate of lymphocytes Yes/No,"[1]; 1 μg/ml, Table B-1",Yes
same,Decrease of survival rate of lymphocytes Yes/No,"[1]; 1 μg/ml, Table B-2",Yes
same,MTT Average of OD values,"[1]; 10 μg/ml, Table B-1",0.002
same,MTT Average of OD values,"[1]; 10 μg/ml, Table B-2",0.008
same,Decrease of survival rate of lymphocytes Yes/No,"[1]; 10 μg/ml, Table B-1",Yes
same,Decrease of survival rate of lymphocytes Yes/No,"[1]; 10 μg/ml, Table B-2",Yes
same,MTT Average of OD values,"[1]; 100 μg/ml, Table B-1",0.163
same,MTT Average of OD values,"[1]; 100 μg/ml, Table B-2",0.145
same,inhibition in survival rate of the lymphocytes,[1]; final concentration range from 0.001 μg/ml to 10 μg/ml,obvious inhibition; also recorded: obvious effect
same,Proliferation of B-lymphoctes LPS stimulation Average of CPM values,"[2]; 0.001 μg/ml, Table B-6",39272 CPM
same,Proliferation of B-lymphoctes LPS stimulation Average of CPM values,"[2]; 0.01 μg/ml, Table B-6",39551 CPM
same,Proliferation of B-lymphoctes LPS stimulation Average of CPM values,"[2]; 0.1 μg/ml, Table B-6",39615 CPM
same,Proliferation of B-lymphocytes LPS stimulation Average of CPM values,"[2]; 1 μg/ml, Table B-5",10137 CPM
same,Proliferation of B-lymphoctes LPS stimulation Average of CPM values,"[2]; 1 μg/ml, Table B-6",32154 CPM
same,Proliferation of B-lymphocytes LPS stimulation Average of CPM values,"[2]; 10 μg/ml, Table B-5",190 CPM
same,Proliferation of B-lymphoctes LPS stimulation Average of CPM values,"[2]; 10 μg/ml, Table B-6",40840 CPM
same,Proliferation of B-lymphocytes LPS stimulation Average of CPM values,"[2]; 100 μg/ml, Table B-5",164 CPM
same,Proliferation of B-lymphoctes LPS stimulation Average of CPM values,"[2]; 100 μg/ml, Table B-6",24523 CPM
same,inhibition at 0.001 µg/mL,"[2]; Mus musculus, 0.001 μg/ml, LPS stimulation, Table B-6, read-out: General assess of activity Enhancement/Inhibition",-7%
same,inhibition at 0.01 µg/mL,"[2]; Mus musculus, 0.01 μg/ml, LPS stimulation, Table B-6, read-out: General assess of activity Enhancement/Inhibition",-8%
same,inhibition at 0.1 µg/mL,"[2]; Mus musculus, 0.1 μg/ml, LPS stimulation, Table B-6, read-out: General assess of activity Enhancement/Inhibition",-8%
same,inhibition at 1 µg/mL,"[2]; Mus musculus, 1 μg/ml, LPS stimulation, Table B-5, read-out: General assess of activity Enhancement/Inhibition",33%
same,inhibition at 1 µg/mL,"[2]; Mus musculus, 1 μg/ml, LPS stimulation, Table B-6, read-out: General assess of activity Enhancement/Inhibition",13%
same,inhibition at 10 µg/mL,"[2]; Mus musculus, 10 μg/ml, LPS stimulation, Table B-5, read-out: General assess of activity Enhancement/Inhibition",99%
same,inhibition at 10 µg/mL,"[2]; Mus musculus, 10 μg/ml, LPS stimulation, Table B-6, read-out: General assess of activity Enhancement/Inhibition",-11%
same,inhibition at 100 µg/mL,"[2]; Mus musculus, 100 μg/ml, LPS stimulation, Table B-5, read-out: General assess of activity Enhancement/Inhibition",99%
same,inhibition at 100 µg/mL,"[2]; Mus musculus, 100 μg/ml, LPS stimulation, Table B-6, read-out: General assess of activity Enhancement/Inhibition",33%
same,inhibition of LPS-induced responsive proliferation of B-lymphocytes,[2],sharply inhibited
same,inhibition of LPS-induced responsive proliferation of B-lymphocytes,[2]; listed as anemonin,remarkably inhibited
same,cytotoxicity,spleen cells; 0.001 ug/ml,No
same,OD value,"spleen cells; 0.001 ug/ml, 570 nM",0.196 ± 0.006
same,cytotoxicity,spleen cells; 0.01 ug/ml,No
same,OD value,spleen cells; 0.01 ug/ml,0.193 ± 0.007
same,cytotoxicity,spleen cells; 0.1 ug/ml,No
same,OD value,spleen cells; 0.1 ug/ml,0.200 ± 0.011
same,cytotoxicity,spleen cells; 1 ug/ml,Yes
same,OD value,spleen cells; 1 ug/ml,0.160 ± 0.004
same,cytotoxicity,spleen cells; 10 ug/ml,Yes
same,OD value,spleen cells; 10 ug/ml,0.135 ± 0.003
same,cytotoxicity,spleen cells; 100 ug/ml,Yes
same,OD value,spleen cells; 100 ug/ml,0.118 ± 0.011
same,cytotoxic effects,spleen cells; 1-100 μg/ml,cytotoxic effects in a dose-dependent manner
same,IL-2,IL-2; 0.001 μg/ml,482 ± 7 pg/mL
same,IL-2,IL-2; 0.01 μg/ml,479 ± 5 pg/mL
same,IL-2,IL-2; 0.1 μg/ml,461 ± 2 pg/mL
same,IL-2,IL-2; 1 μg/ml,190 ± 2 pg/mL
same,IL-2,IL-2; 10 μg/ml,22 ± 1 pg/mL
same,IL-2,IL-2; 100 μg/ml,28 ± 1 pg/mL
same,ER: increased permeation times,[3]; 30% ethanol solution,2.0
same,Js: steady penetration velocity,[3]; 30% ethanol solution,4.65 ± 0.47 μg · cm^−2 · h^−1
same,Q24: cumulative amount of percutaneous penetration medicament per square centimeter for 24 hours,[3]; 30% ethanol solution,104.45 ± 12.58 μg · cm^−2
same,Tlag: time lag,[3]; 30% ethanol solution,1.09 ± 0.20 h
same,steady penetration velocity into derma,[3]; 30% of ethanol,4.65
same,ER: increased permeation times,[3]; water-saturated solution,1.0
same,Js: steady penetration velocity,[3]; water-saturated solution,2.28 μg · cm^−2 · h^−1 and 2.28 ± 0.39 μg · cm^−2 · h^−1
same,Q24: cumulative amount of percutaneous penetration medicament per square centimeter for 24 hours,[3]; water-saturated solution,50.49 ± 6.48 μg · cm^−2
same,Tlag: time lag,[3]; water-saturated solution,2.05 ± 0.74 h
